# Results from patent US20150203474A1, “SOLID FORMS COMPRISING INHIBITORS OF HCV NS5A, COMPOSITIONS THEREOF, AND USES THEREWITH” (PRESIDIO PHARMACEUTICALS ,INC., priority 2012, published 2015).
# Read-outs that look alike come from different tables or passages of the source.
# Key:
# [1] = PK study of Form I of Compound II in monkeys; format: in vivo; details: PO dose of 75 mg/kg; for concentration at 0.083 h / concentration at 0.25 h / concentration at 0.5 hr / concentration at 1 hr / concentration at 2 hr / concentration at 4 hr / concentration at 6 hr / concentration at 8 hr / concentration at 24 h: male, cynomolgus monkey, plasma, po, 75 mg/kg
# Experimental: The pharmacokinetics (PK) properties of Form A of Compound I and Form I of Compound II were determined in a series of comprehensive experiments in preclinical species including Sprague-Dawley rats, beagle dogs, cynomolgus monkeys. In those studies, the Form A crystalline salt of Compound I (and Form I crystalline salt of Compound II) was formulated in saline, 0.5% MC in saline or other commonly used suitable formulation vehicles to give a clear solution or as a suspension or a paste depending on the concentration intended to reach and the choice of vehicles. Dosing was by oral gavage. Blood samples were drawn and placed into individual tube containing K2EDTA. Blood samples were put on ice and centrifuged (2000 g for 5 minutes at 4° C.) to obtain plasma within 15 minutes after collection. Plasma samples were stored at approximately −80° C. freezer until analysis. For most of these analyses, Compound I (and Compound II) and the internal standard (IS) were extracted from rat, monkey or dog plasma by protein precipitation, and the extract was evaporated, reconstituted and analyzed using HPLC with tandem mass spectrometric detection (HPLC-MS/MS), see examples for further details. Calibration was accomplished by weighted linear regression of the ratio of the peak area of analyte to that of the added internal standard (IS). For the validated assay in rat and monkey EDTA plasma, the Lower Limit of Quantitation (LLOQ) for both compound 1 and 2 was 5.00 ng/mL, and the assay was linear from 5.00-1,000 ng/mL. PK parameters were calculated by non-compartmental analysis using WinNonlin (versions 4.1 through 6.1). Non-naïve Cynomolgus monkeys, 3.2-3.5 kg, male Dosing solution was prepared by dissolving 682.96 mg of Form I of Compound II in 82.558 mL of 0.5% MC in saline, vortexing for 5 min and sonicating for 18 min to obtain a homogenous solution. The above solution was given to the animals at 10 mL/kg via intragastric administration To collect blood samples, the animals were restrained manually and approx. 0.6-1 mL blood/time point was collected from cephalic or sephanous veins into pre-cooled EDTA tubes. Blood samples were put on ice and centrifuged at 4° C. to obtain plasma within 30 minutes of sample collection. Plasma samples were stored at −70° C. until analysis. • Instrument LC-MS/MS (API4000) • MS conditions Positive ion, EST • HPLC conditions Mobile Phase A: H2O—0.025% formic acid—1 mM NH4OAc • Mobile Phase B: MeOH—0.025% formic acid—1 mM NH4OAc • Column: Boston Crest ODS-C18 (2.1×50 mm, 5 μm) • Flow rate: 0.40 mL/min • Compound II retention time: 2.30 min; • IS retention time: 2.29 min • Sample preparation An aliquot of 20 μL plasma sample was protein precipitated with […] which contains 5 ng/mL IS (P1100970-1). The mixture was vortexed for 2 min, and then centrifuged at 12000 rpm for 5 min. an aliquot of 5 μL supernatant was injected onto the LC-MS/MS system.
# [2] = Solubility of Form I and free base compound 4-3 (visual and HPLC assay of filtrate); format: physicochemical; details: for solubility at 24 h: thermodynamic from solid; for solubility at 24 h / HPLC Solubility / Visual Solubility (observation in words): target conc. 2.0 mg/mL; for pH (Filtrated): filtrate of solubility sample
# Experimental: Solubility of Form I as well as the free base compound 4-3 was tested. Solubility was measured by placing a small quantity of the compound to be analyzed in a glass vial, capping and rotating the vial overnight at ambient conditions (24 hours). Target concentration was 2.0 mg/mL. The samples were filtrated with 0.45-μm filters. The subsequent filtrate was collected for HPLC assay. HPLC conditions are shown in Table 10 in Appendix A. Solubility for Form I is shown in Table 11 and for the free base compound 4-3 is shown in Table 12 in Appendix A. [table]
# [3] = Moisture sorption profile (DVS) of Compound II Form I and amorphous Compound II; format: physicochemical; details: DVS at 25° C.
# Experimental: The moisture sorption profile was generated of the sample as well as of a sample of amorphous Compound II at 25° C. using a DVS Moisture Balance Flow System (Model Advantage) with the following conditions: sample size approximately 10 mg, drying 25° C. for 60 minutes, adsorption range 0% to 95% RH, desorption range 95% to 0% RH, and step interval 5%. The equilibrium criterion was <0.01% weight change in 5 minutes for a maximum of 120 minutes.
# [4] = #0610703, read-out: plasma concentration
# [5] = #0612169, read-out: plasma concentration
# [6] = Mean, read-out: mean plasma concentration
smiles,measurement,setting,value
CC[C@H](C)[C@H](NC(=O)OC)C(=O)N1CCC[C@H]1c1nc2ccc(-c3ccc4cc(-c5cnc([C@@H]6CCCN6C(=O)[C@@H](NC(=O)OC)[C@@H](C)OC)[nH]5)ccc4c3)cc2[nH]1 [Form I of Compound II],plasma concentration,"[1]; Cynomolgus monkeys, 0.083 hr, #0610703",BQL
same,concentration at 0.083 h,"[1]; 0.083 hr, #0612169, read-out: plasma concentration",8.33 ng/mL
same,concentration at 0.083 h,"[1]; 0.083 hr, Mean, read-out: mean plasma concentration",8.33 ng/mL
same,concentration at 0.25 h,[1]; [4],33.3 ng/mL
same,concentration at 0.25 h,[1]; [5],86.8 ng/mL
same,concentration at 0.25 h,[1]; [6],60.1 ng/mL
same,concentration at 0.5 hr,[1]; [4],207 ng/mL
same,concentration at 0.5 hr,[1]; [5],273 ng/mL
same,concentration at 0.5 hr,[1]; [6],240 ng/mL
same,concentration at 1 hr,[1]; [4],497 ng/mL
same,concentration at 1 hr,[1]; [5],1140 ng/mL
same,concentration at 1 hr,[1]; [6],819 ng/mL
same,concentration at 2 hr,[1]; [4],336 ng/mL
same,concentration at 2 hr,[1]; [5],954 ng/mL
same,concentration at 2 hr,[1]; [6],645 ng/mL
same,concentration at 4 hr,[1]; [4],213 ng/mL
same,concentration at 4 hr,[1]; [5],435 ng/mL
same,concentration at 4 hr,[1]; [6],324 ng/mL
same,concentration at 6 hr,[1]; [4],110 ng/mL
same,concentration at 6 hr,[1]; [5],194 ng/mL
same,concentration at 6 hr,[1]; [6],152 ng/mL
same,concentration at 8 hr,[1]; [4],55.9 ng/mL
same,concentration at 8 hr,[1]; [5],93.1 ng/mL
same,concentration at 8 hr,[1]; [6],74.5 ng/mL
same,concentration at 24 h,[1]; [4],8.79 ng/mL
same,concentration at 24 h,[1]; [5],7.37 ng/mL
same,concentration at 24 h,[1]; [6],8.08 ng/mL
same,solubility at 24 h,"[2]; 0.1N HCl, simulated gastric fluid, 0.1N HCl, 24 hours ambient, 0.45-μm filtrate, read-out: HPLC Solubility",2070 µg/mL
same,solubility at 24 h,"[2]; 0.1N HCl, simulated gastric fluid, 0.1N HCl, read-out: Visual Solubility",> 2000 µg/mL
same,pH (Filtrated),"[2]; 0.1N HCl, listed as Form I",1.00
same,pH (Filtrated),"[2]; Water, listed as Form I",3.45
same,HPLC Solubility,"[2]; Water, 24 hours ambient, 0.45-μm filtrate, listed as Form I",2036 µg/mL
same,solubility at 24 h,"[2]; pH 2 medium, pH 2, simulated gastric fluid, pH 2 medium, 24 hours ambient, 0.45-μm filtrate, read-out: HPLC Solubility",2050 µg/mL
same,solubility at 24 h,"[2]; pH 2 medium, pH 2, simulated gastric fluid, pH 2 medium, read-out: Visual Solubility",> 2000 µg/mL
same,pH (Filtrated),"[2]; pH 2 medium, listed as Form I",2.00
same,solubility at 24 h,"[2]; pH 3 medium, pH 3, aqueous buffer, pH 3 medium, 24 hours ambient, 0.45-μm filtrate, read-out: HPLC Solubility",2030 µg/mL
same,solubility at 24 h,"[2]; pH 3 medium, pH 3, aqueous buffer, pH 3 medium, read-out: Visual Solubility",> 2000 µg/mL
same,pH (Filtrated),"[2]; pH 3 medium, listed as Form I",2.96
same,pH (Filtrated),"[2]; pH 4 medium, listed as Form I",3.55
same,HPLC Solubility,"[2]; pH 4 medium, 24 hours ambient, 0.45-μm filtrate, listed as Form I",1857 µg/mL
same,Visual Solubility (observation in words),"[2]; pH 4 medium, listed as Form I",A few
same,pH (Filtrated),"[2]; pH 5 medium, listed as Form I",3.63
same,Visual Solubility (observation in words),[2]; pH 5 medium,Turbid +
same,HPLC Solubility,"[2]; pH 5 medium, 24 hours ambient, 0.45-μm filtrate, listed as Form I",1106 µg/mL
same,pH (Filtrated),"[2]; pH 6 medium, listed as Form I",5.44
same,Visual Solubility (observation in words),"[2]; pH 6 medium, listed as Form I",Many
same,pH (Filtrated),"[2]; pH 7 medium, listed as Form I",6.86
same,Visual Solubility (observation in words),"[2]; pH 7 medium, listed as Form I",Many
same,pH (Filtrated),"[2]; pH 8 medium, listed as Form I",7.58
same,Visual Solubility (observation in words),"[2]; pH 8 medium, listed as Form I",Many
same,solubility at 24 h,"[2]; water, Water, read-out: Visual Solubility",> 2000 µg/mL
same,Hygroscopicity (in words),[3]; 0-75% RH,medium hygroscopic
same,Water absorption at high RH (in words),[3]; ~85% RH and above,absorbed water very quickly
same,weight percentage change (water uptake) from 0-75% RH,[3]; listed as Compound II Form I,4.34%
